# Experimental data from US7803930B2, “Antisense modulation of apolipoprotein B-expression” (Isis Pharmaceuticals, Inc., priority 2002, dated 2010).
# In the oligonucleotide strings, read from the 5' end, every base follows the letter of its sugar. An asterisk marks phosphorothioate; unmarked linkages are phosphodiester. Other units and linkages are bracketed, terminal groups are in braces. A string of capitals states the bases alone. e = 2'-O-(2-methoxyethyl) (MOE); [5mC] = 5-methylcytosine; d = 2'-deoxy (DNA)
# Experiments:
# [1] = system: human apolipoprotein B mRNA; experiment: Apolipoprotein B mRNA in primary human hepatocytes, real-time PCR; assay type: cell-based; settings: for apolipoprotein B mRNA expression: 5, 10, 50 or 150 nM
# Method: In accordance with the present invention, antisense oligonucleotides targeted to human apolipoprotein B were tested in dose response studies in primary human hepatocytes. Pre-plated primary human hepatocytes were purchased from Invitro Technologies (Baltimore, Md.). Cells were cultured in high-glucose DMEM (Invitrogen Corporation, Carlsbad, Calif.) supplemented with 10% fetal bovine serum (Invitrogen Corporation, Carlsbad, Calif.), 100 units/mL and 100 μg/mL streptomycin (Invitrogen Corporation, Carlsbad, Calif.).
# Human primary hepatocytes were treated with ISIS 301012 (SEQ ID NO: 247) at 10, 50, 150 or 300 nM. Untreated cells and cells treated with the scrambled control oligonucleotide ISIS 113529 ([…], SEQ ID NO: 859) served as two groups of control cells. ISIS 113529 is a chimeric oligonucleotide (“gapmer”) 20 nucleotides in length, composed of a central “gap” region consisting of ten 2′-deoxynucleotides, which is flanked on both sides (5′ and 3′ directions) by five-nucleotide “wings”. The wings are composed of 2′-methoxyethyl (2′-MOE)nucleotides. The internucleoside (backbone) linkages are phosphorothioate (P═S) throughout the oligonucleotide. All cytidines are 5-methylcytidines.
# Oligonucleotides were introduced into cells through LIPOFECTIN-mediated transfection as described by other examples herein. Cells were harvested both 24 and 48 hours after treatment with oligonucleotide, and both RNA and protein were isolated. Additionally, the culture media from treated cells was collected for ELISA analysis of apolipoprotein B protein secretion.
# Apolipoprotein B mRNA expression was determined by real-time PCR of RNA samples as described by other examples herein. Each result represents 6 experiments.
# An additional experiment was performed to test the effects of ISIS 271009 (SEQ ID NO: 319), ISIS 281625 (SEQ ID NO: 224) and ISIS 301027 (SEQ ID NO: 262) on human apolipoprotein B mRNA in human primary hepatocytes. Cells were cultured as described herein and treated with 5, 10, 50 or 150 nM of ISIS 271009, ISIS 281625 or ISIS 301027 for a period of 24 hours. The control oligonucleotides ISIS 13650 (SEQ ID NO: 806) and ISIS 113529 (SEQ ID NO: 859) were used at 50 or 150 nM. Human apolipoprotein B mRNA expression was evaluated by real-time PCR as described by other examples herein. Apolipoprotein B protein secreted into the cultured cell media was measured in the samples treated with 50 and 150 nM of oligonucleotide, using a target protein specific ELISA kit (ALerCHEK Inc., Portland, Me.).
# [2] = system: endogenous mouse apolipoprotein B; experiment: C57BL/6NTac-TgN(APOB100) transgenic mice, 8 weeks (Example 47): endogenous mouse apolipoprotein B mRNA in liver; assay type: in vivo; settings: C57BL/6NTac-TgN(APOB100) mice, 25 mg/kg i.p. twice a week, eight weeks; for mRNA % control, mouse mRNA: liver; for levels of the endogenous mouse apolipoprotein B in liver: specificity
# Method: C57BL/6NTac-TgN(APOB100) mice were divided into two groups—one group receiving oligonucleotide treatment and control animals receiving saline treatment. After overnight fasting, mice were dosed intraperitoneally twice a week with saline or 25 mg/kg ISIS 281625 (SEQ ID No: 224) or ISIS 301012 (SEQ ID No: 247) for eight weeks. At study termination and forty eight hours after the final injections, animals were sacrificed and evaluated for target mRNA levels in liver, cholesterol and triglyceride levels, and liver enzyme levels. In addition, the endogenous mouse apolipoprotein B levels in liver were measured to evaluate any effects of these antisense oligonucletides targeted to the human apolipoprotein B.
# [3] = Toxicity in C57BL/6 mice, two weeks (Example 48): liver enzyme levels, body, liver and spleen weight; assay type: in vivo, mouse; parameters: Weight BODY / Weight LIVER / Weight SPLEEN: unit not given here; settings: 25 mg/kg i.p. twice a week
# Method: C57BL/6 mice were divided into two groups—one group receiving oligonucleotide treatment and control animals receiving saline treatment. After overnight fasting, mice were dosed intraperitoneally twice a week with saline or 25 mg/kg of one of several oligonucleotides for two weeks. The antisense oligonucleotides used in the present study were ISIS 233172 (SEQ ID NO: 835) and ISIS 233175 (SEQ ID NO: 838), both targeted to rabbit apolipoprotein B, and ISIS 281625 (SEQ ID NO: 224), ISIS 301012 (SEQ ID NO: 247), and ISIS 301027 (SEQ ID NO: 262), targeted to human apolipoprotein B. At study termination and forty eight hours after the final injections, animals were sacrificed and evaluated for liver enzyme levels, body weight, liver weight, and spleen weight.
# [4] = system: human apolipoprotein B mRNA; experiment: Inhibition of apolipoprotein B mRNA by dsRNAs in HepG2 cells; assay type: cell-based; settings: 150 nM with 3.75 μg/mL LIPOFECTIN
# Method: In accordance with the present invention, a series of nucleic acid duplexes comprising the antisense compounds of the present invention and their complements were designed to target apolipoprotein B and are shown in Table 42. All compounds in Table 42 are oligoribonucleotides 20 nucleotides in length with phosphodiester internucleoside linkages (backbones) throughout the compound. The compounds were prepared with blunt ends. […] These sequences are shown to contain uracil (U) but one of skill in the art will appreciate that uracil (U) is generally replaced by thymine (T) in DNA sequences. “Targer site” indicates the first (5′-most) nucleotide number on the particular target sequence to which the compound binds. A subset of the compounds in Table 42 are the RNA equivalents of DNA antisense oligonucleotides described herein, and, where applicable, this is noted by the ISIS # of the DNA oligonucleotide in the column “RNA equivalent of ISIS #”.
# The dsRNA compounds in Table 42 were tested for their effects on human apolipoprotein mRNA in HepG2 cells. HepG2 cells were treated with 100 nM of dsRNA compounds mixed with 5 μg/mL LIPOFECTIN (Invitrogen Corporation, Carlsbad, Calif.) for a period of 16 hours. In the same experiment, HepG2 cells were also treated with 150 nM of subset of the antisense oligonucleotides described herein mixed with 3.75 μg/mL LIPOFECTIN; these compounds are listed in Table 43. Control oligonucleotides included ISIS 18078 ([…], SEQ ID NO: 888). ISIS 18078 is a chimeric oligonucleotide (“gapmer”) 20 nucleotides in length, composed of a central “gap” region consisting of 9 2′-deoxynucleotides, which is flanked on the 5′ and 3′ ends by a five-nucleotide “wing” and a six-nucleotide “wing”, respectively. The wings are composed of 2′-methoxyethyl (2′-MOE)nucleotides. The internucleoside (backbone) linkages are phosphorothioate (P═S) throughout the oligonucleotide. All cytidines are 5-methylcytidines. The duplex of ISIS 263188 ([…], SEQ ID NO: 889) and its complement was also used as a control. ISIS 263188 is an oligoribonucleotide 21 nucleotides in length with the 2 nucleotides on the 3′ end being oligodeoxyribonucleotides (TT) and with phosphodiester internucleoside linkages (backbones) throughout the compound.
# Cells were treated for 4 hours, after which human apolipoprotein B mRNA expression was measured as described by examples herein. Results were normalized to untreated control cells, which were not treated with LIPOFECTIN or oligonucleotide.
# [5] = 5 nM, 24 hours, "+" = expression increased
substance,measurement,setting,value
113529 (antisense e[5mC]*eT*e[5mC]*eT*eT*dA*d[5mC]*dT*dG*dT*dG*d[5mC]*dT*dG*dT*eG*eG*eA*e[5mC]*eA) [compound 113529],% Inhibition of apolipoprotein B mRNA,"[1]; 150 nM, 24 hours",16%
same,% Inhibition of apolipoprotein B mRNA,"[1]; 150 nM, 48 hours",5%
same,% Inhibition of apolipoprotein B mRNA,"[1]; 300 nM, 24 hours",10%
same,% Inhibition of apolipoprotein B mRNA,"[1]; 300 nM, 48 hours",18%
281625 (antisense eA*eG*eG*eT*eT*dA*d[5mC]*d[5mC]*dA*dG*d[5mC]*d[5mC]*dA*d[5mC]*dA*eT*eG*e[5mC]*eA*eG) [compound 281625],"mRNA % control, mouse mRNA",[2],111.0 % control
same,Liver Enzymes ALT,[3],36.2 IU/L
same,Liver Enzymes AST,[3],89.5 IU/L
same,Weight BODY,[3],20.9
same,Weight LIVER,[3],1.2
same,Weight SPLEEN,[3],0.1
same,% Inhibition of apolipoprotein B mRNA,[4],79%
301012 (eG*e[5mC]*e[5mC]*eT*e[5mC]*dA*dG*dT*d[5mC]*dT*dG*d[5mC]*dT*dT*d[5mC]*eG*e[5mC]*eA*e[5mC]*e[5mC]) [compound 301012],"mRNA % control, mouse mRNA",[2],94.6 % control
same,Liver Enzymes ALT,[3],21.2 IU/L
same,Liver Enzymes AST,[3],50.6 IU/L
same,Weight BODY,[3],21.3
same,Weight LIVER,[3],1.1
same,Weight SPLEEN,[3],0.1
same,% Inhibition of apolipoprotein B mRNA,"[1]; 10 nM, 24 hours",65%
same,% Inhibition of apolipoprotein B mRNA,"[1]; 10 nM, 48 hours",33%
same,% Inhibition of apolipoprotein B mRNA,"[1]; 50 nM, 24 hours",75%
same,% Inhibition of apolipoprotein B mRNA,"[1]; 50 nM, 48 hours",48%
same,% Inhibition of apolipoprotein B mRNA,"[1]; 150 nM, 24 hours",90%
same,% Inhibition of apolipoprotein B mRNA,"[1]; 150 nM, 48 hours",78%
same,% Inhibition of apolipoprotein B mRNA,"[1]; 300 nM, 24 hours",89%
same,% Inhibition of apolipoprotein B mRNA,"[1]; 300 nM, 48 hours",72%
same,% Inhibition of apolipoprotein B mRNA,[4],77%
301027 (eG*e[5mC]*eT*e[5mC]*eA*d[5mC]*dT*dG*dT*dA*dT*dG*dG*dT*dT*eT*eT*eA*eT*e[5mC]; antisense) [compound 301027],Liver Enzymes ALT,[3],221.3 IU/L
same,Liver Enzymes AST,[3],455.3 IU/L
same,Weight BODY,[3],21.2
same,Weight LIVER,[3],1.3
same,Weight SPLEEN,[3],0.1
same,% Inhibition of apolipoprotein B mRNA,[4],79%
"ISIS 281625: SEQ ID NO: 224, 2′-MOE gapmer targeted to human apolipoprotein B (antisense eA*eG*eG*eT*eT*dA*d[5mC]*d[5mC]*dA*dG*d[5mC]*d[5mC]*dA*d[5mC]*dA*eT*eG*e[5mC]*eA*eG)",levels of the endogenous mouse apolipoprotein B in liver,[2],unaffected
same,% Inhibition of apolipoprotein B mRNA expression,[1]; [5],8%
same,% Inhibition of apolipoprotein B mRNA expression,"[1]; 10 nM, 24 hours (Table 37)",22%
same,% Inhibition of apolipoprotein B mRNA expression,"[1]; 50 nM, 24 hours (Table 37)",49%
same,% Inhibition of apolipoprotein B mRNA expression,"[1]; 150 nM, 24 hours (Table 37)",52%
same,apolipoprotein B mRNA expression,[1]; 24 hours,inhibit apolipoprotein B mRNA expression in a dose-dependent manner
"ISIS 301012: SEQ ID NO: 247, antisense oligonucleotide targeted to human apolipoprotein B (antisense GCCTCAGTCTGCTTCGCACC; chemistry not given here)",levels of the endogenous mouse apolipoprotein B in liver,[2],unaffected
same,apolipoprotein B expression (mRNA),"[1]; 10, 50, 150 or 300 nM, 24 and 48 hours",inhibits apolipoprotein B expression in a dose-dependent manner
"ISIS 301027: SEQ ID NO: 262, 2′-MOE gapmer targeted to human apolipoprotein B (antisense eG*e[5mC]*eT*e[5mC]*eA*d[5mC]*dT*dG*dT*dA*dT*dG*dG*dT*dT*eT*eT*eA*eT*e[5mC])",levels of liver enzymes relative to saline treatment,[3],drastically increased
same,% Inhibition of apolipoprotein B mRNA expression,[1]; [5],11%
same,% Inhibition of apolipoprotein B mRNA expression,"[1]; 10 nM, 24 hours (Table 37)",37%
same,% Inhibition of apolipoprotein B mRNA expression,"[1]; 50 nM, 24 hours (Table 37)",50%
same,% Inhibition of apolipoprotein B mRNA expression,"[1]; 150 nM, 24 hours (Table 37)",70%
same,apolipoprotein B mRNA expression,[1]; 24 hours,inhibit apolipoprotein B mRNA expression in a dose-dependent manner
